Test results: US9096608B2, “Pharmaceutically active pyrazolo-triazine derivatives” (LEAD DISCOVERY CENTER GMBH, priority 2012, dated 2015)
Read-outs that look alike come from different tables or passages of the source.

What was measured:
Format in all cases: biochemical
CDK9/Cyclin T1 = target: T1, CDK9/Cyclin T1 (Homo sapiens, UniProt P50750); experiment: CDK9 Enzymatic Activity Assay (Lance Kinase Activity Assay, FRET); settings: for CDK9: Selectivity of CDK7 inhibition over CDK9 inhibition [fold]: Table 5B, symbols per IC50 ranges of b615
T1 construct: purchased Invitrogen
In short: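 TR-FRET detection of ULight-MBP substrate phosphorylation by CDK9/cyclin T1 using a Eu-anti-phospho-MBP antibody, in 50 mM HEPES pH 7.5, 10 mM MgCl2, 1 mM EGTA, 2 mM DTT, 0.01% Tween-20. Kinase reaction 1 h at room temperature, then EDTA detection buffer for 1 h before reading.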

CDK7/CycH/Mat1 = target: T2, CDK7/CycH/Mat1 (Homo sapiens, UniProt P50613); experiment: CDK7 Enzymatic Activity Assay (Lance Kinase Activity Assay, FRET)
T2 construct: purchased Carna
In short: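 TR-FRET (LANCE) kinase assay with ULight-MBP peptide substrate and Eu-labelled anti-phospho antibody; compounds in 8-point 1:3 series in HEPES 50 mM pH 7.5, MgCl2 10 mM, EGTA 1 mM, DTT 2 mM, 0.01% Tween-20.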

CDK2/CycA = target: T3, CDK2/CycA (Homo sapiens, UniProt P24941); experiment: CDK2 Enzymatic Activity Assay (Lance Kinase Activity Assay, FRET); settings: for CDK2 IC50 range class: Table 5B, symbols per IC50 ranges of b615
T3 construct: purchased Proqinase
In short: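 Compounds serially diluted 1:3 over 8 steps, run with CDK2/CycA, ULight-MBP substrate and ATP in HEPES pH 7.5 buffer for 1 h at room temperature. LANCE TR-FRET detection with Eu-anti-phospho-MBP after EDTA stop; IC50 from sigmoidal dose-response curves.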

[1] = Table 5A, 25 μM ATP final, read-out: CDK7: IC50 [mM] for CDK7 inhibition (the above defined ranges apply)

T2 sequence (P50613 whole entry): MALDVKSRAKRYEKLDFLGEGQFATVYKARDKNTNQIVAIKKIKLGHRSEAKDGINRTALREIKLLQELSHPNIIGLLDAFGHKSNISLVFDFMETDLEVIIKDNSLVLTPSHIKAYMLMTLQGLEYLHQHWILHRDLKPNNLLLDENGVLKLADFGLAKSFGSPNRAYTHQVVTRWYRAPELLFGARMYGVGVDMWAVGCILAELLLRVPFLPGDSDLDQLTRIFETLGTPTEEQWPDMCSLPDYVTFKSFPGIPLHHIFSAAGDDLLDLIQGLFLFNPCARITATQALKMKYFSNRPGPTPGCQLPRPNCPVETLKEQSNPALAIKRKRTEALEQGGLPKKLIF
T2 sequence (P51946 whole entry partner): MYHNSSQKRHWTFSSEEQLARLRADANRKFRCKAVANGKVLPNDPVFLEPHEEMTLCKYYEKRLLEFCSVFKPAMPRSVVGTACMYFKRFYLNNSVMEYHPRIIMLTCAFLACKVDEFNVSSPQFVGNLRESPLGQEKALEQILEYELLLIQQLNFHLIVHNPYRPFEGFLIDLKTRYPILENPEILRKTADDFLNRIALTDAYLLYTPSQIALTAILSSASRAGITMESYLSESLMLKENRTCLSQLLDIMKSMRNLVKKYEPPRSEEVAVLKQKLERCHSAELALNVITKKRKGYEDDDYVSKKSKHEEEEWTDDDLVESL
T2 sequence (P51948 whole entry partner): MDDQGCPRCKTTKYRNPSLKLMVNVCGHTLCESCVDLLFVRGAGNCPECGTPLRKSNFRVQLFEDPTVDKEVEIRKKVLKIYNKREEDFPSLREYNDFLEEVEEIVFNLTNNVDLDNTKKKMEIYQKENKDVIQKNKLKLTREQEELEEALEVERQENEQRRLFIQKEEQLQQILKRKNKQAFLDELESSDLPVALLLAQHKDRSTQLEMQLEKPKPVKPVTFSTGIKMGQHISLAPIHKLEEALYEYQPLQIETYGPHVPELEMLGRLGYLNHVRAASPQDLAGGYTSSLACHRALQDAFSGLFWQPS
T1 sequence (P50750 whole entry): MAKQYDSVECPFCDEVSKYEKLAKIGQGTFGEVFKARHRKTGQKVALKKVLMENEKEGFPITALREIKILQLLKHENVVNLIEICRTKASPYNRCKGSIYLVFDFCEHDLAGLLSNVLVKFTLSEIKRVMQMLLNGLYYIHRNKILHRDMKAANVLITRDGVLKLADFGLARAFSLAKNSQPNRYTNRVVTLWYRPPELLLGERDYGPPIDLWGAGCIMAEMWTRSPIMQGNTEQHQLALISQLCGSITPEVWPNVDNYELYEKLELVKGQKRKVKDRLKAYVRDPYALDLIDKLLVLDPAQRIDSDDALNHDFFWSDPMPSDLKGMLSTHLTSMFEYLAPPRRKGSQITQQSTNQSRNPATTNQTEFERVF
T1 sequence (O60563 whole entry partner): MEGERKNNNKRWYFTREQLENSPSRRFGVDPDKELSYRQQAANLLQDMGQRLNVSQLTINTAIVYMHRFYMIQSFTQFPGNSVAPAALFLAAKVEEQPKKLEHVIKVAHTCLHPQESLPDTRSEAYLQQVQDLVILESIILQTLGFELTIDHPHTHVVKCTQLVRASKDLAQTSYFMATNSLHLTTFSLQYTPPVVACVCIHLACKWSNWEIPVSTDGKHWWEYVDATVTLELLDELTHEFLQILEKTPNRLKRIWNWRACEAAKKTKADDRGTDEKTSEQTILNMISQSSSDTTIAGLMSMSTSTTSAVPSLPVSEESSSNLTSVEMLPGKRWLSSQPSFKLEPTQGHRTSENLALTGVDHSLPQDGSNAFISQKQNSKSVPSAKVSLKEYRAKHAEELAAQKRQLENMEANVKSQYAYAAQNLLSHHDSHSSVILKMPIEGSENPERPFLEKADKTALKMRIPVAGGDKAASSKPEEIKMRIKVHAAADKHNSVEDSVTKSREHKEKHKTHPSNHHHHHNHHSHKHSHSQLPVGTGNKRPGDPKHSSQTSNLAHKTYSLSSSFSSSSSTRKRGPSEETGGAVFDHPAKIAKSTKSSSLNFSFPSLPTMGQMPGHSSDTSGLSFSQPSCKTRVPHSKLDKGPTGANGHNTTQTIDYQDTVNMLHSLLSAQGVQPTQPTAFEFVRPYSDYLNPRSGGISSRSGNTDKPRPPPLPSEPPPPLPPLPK

Compound	CDK9: Selectivity of CDK7 inhibition over CDK9 inhibition [fold] (CDK9/Cyclin T1)	IC50 (CDK7/CycH/Mat1; [1])	CDK2 IC50 range class (CDK2/CycA)	Selectivity CDK7 over CDK9 [fold] (CDK9/Cyclin T1; Table 7, lower part)	IC50 (CDK9/Cyclin T1; Table 7, upper part)	IC50 (CDK7/CycH/Mat1; Table 7, lower part, read-out: IC50 [nM] CDK7)	IC50 (CDK7/CycH/Mat1; Table 7, upper part, read-out: IC50 [nM] CDK7)	Selectivity CDK7 over CDK2 [fold] (CDK2/CycA; Table 7, lower part)	IC50 (CDK2/CycA; Table 7, upper part)
COc1cccc([C@H](C)Nc2nc(NCCCN3CCOCC3)nc3c(C(C)C)cnn23)c1 [(VIII-j), (S)-8-isopropyl-N4-(1-(3-methoxyphenyl)ethyl)-N2-(3-morpholinopropyl)pyrazolo[1,5-a][1,3,5]triazine-2,4-diamine]	+++ (IC50>2500 nM)	> 100 nM	+++ (IC50>2500 nM)	–	–	–	–	–	–
COc1cccc([C@H](C)Nc2nc(N(C)CCN3CCCC3)nc3c(C(C)C)cnn23)c1 [(VIII-k), (S)-8-isopropyl-N4-(1-(3-methoxyphenyl)ethyl)-N2-methyl-N2-(2-(pyrrolidin-1-yl)ethyl)pyrazolo[1,5-a][1,3,5]triazine-2,4-diamine]	+++ (IC50>2500 nM)	> 100 nM	+++ (IC50>2500 nM)	–	–	–	–	–	–
COc1cccc([C@H](C)Nc2nc(NCCN3CCCC3)nc3c(C(C)C)cnn23)c1 [(VIII-l), (S)-8-isopropyl-N4-(1-(3-methoxyphenyl)ethyl)-N2-(2-(pyrrolidin-1-yl)ethyl)pyrazolo[1,5-a][1,3,5]triazine-2,4-diamine]	+++ (IC50>2500 nM)	> 100 nM	+++ (IC50>2500 nM)	–	–	–	–	–	–
COc1cccc([C@H](C)Nc2nc(NCCN3CCOCC3)nc3c(C(C)C)cnn23)c1 [(VIII-m), (S)-8-isopropyl-N4-(1-(3-methoxyphenyl)ethyl)-N2-(2-morpholinoethyl)pyrazolo[1,5-a][1,3,5]triazine-2,4-diamine]	+++ (IC50>2500 nM)	> 100 nM	+++ (IC50>2500 nM)	–	–	–	–	–	–
COc1cccc([C@H](C)Nc2nc(N3CC(N4CCCC4=O)C3)nc3c(C(C)C)cnn23)c1 [(VIII-n), (S)-1-(1-(8-isopropyl-4-((1-(3-methoxyphenyl)ethyl)amino)pyrazolo[1,5-a][1,3,5]triazin-2-yl)azetidin-3-yl)pyrrolidin-2-one]	+++ (IC50>2500 nM)	> 100 nM	+++ (IC50>2500 nM)	–	–	–	–	–	–
COc1cccc([C@H](C)Nc2nc(N3CC(N4CCC(F)(F)C4)C3)nc3c(C(C)C)cnn23)c1 [(VIII-o), (S)-2-(3-(3,3-difluoropyrrolidin-1-yl)azetidin-1-yl)-8-isopropyl-N-(1-(3-methoxyphenyl)ethyl)pyrazolo[1,5-a][1,3,5]triazin-4-amine]	+++ (IC50>2500 nM)	> 100 nM	+++ (IC50>2500 nM)	–	–	–	–	–	–
COc1cccc([C@H](C)Nc2nc(N3CCCC(N)C3)nc3c(C(C)C)cnn23)c1 (stereo partly drawn) [(VIII-p), 2-(3-aminopiperidin-1-yl)-8-isopropyl-N-((S)-1-(3-methoxyphenyl)ethyl)pyrazolo[1,5-a][1,3,5]triazin-4-amine]	+++ (IC50>2500 nM)	> 100 nM	+++ (IC50>2500 nM)	–	–	–	–	–	–
COc1cccc([C@H](C)Nc2nc(N3CCC(N)C3)nc3c(C(C)C)cnn23)c1 (stereo partly drawn) [(VIII-q), 2-(3-aminopyrrolidin-1-yl)-8-isopropyl-N-((S)-1-(3-methoxyphenyl)ethyl)pyrazolo[1,5-a][1,3,5]triazin-4-amine]	+++ (IC50>2500 nM)	> 100 nM	+++ (IC50>2500 nM)	–	–	–	–	–	–
COc1cccc([C@H](C)Nc2nc(N3CC4CCNC4C3)nc3c(C(C)C)cnn23)c1 (stereo partly drawn) [(VIII-r), 2-(hexahydropyrrolo[3,4-b]pyrrol-5(1H)-yl)-8-isopropyl-N-((S)-1-(3-methoxyphenyl)ethyl)pyrazolo[1,5-a][1,3,5]triazin-4-amine]	+++ (IC50>2500 nM)	> 100 nM	+++ (IC50>2500 nM)	–	–	–	–	–	–
COc1cccc([C@H](C)Nc2nc(N(C)CCN3CCOCC3)nc3c(C(C)C)cnn23)c1 [(VIII-s), (S)-8-isopropyl-N4-(1-(3-methoxyphenyl)ethyl)-N2-methyl-N2-(2-morpholinoethyl)pyrazolo[1,5-a][1,3,5]triazine-2,4-diamine]	+++ (IC50>2500 nM)	> 100 nM	+++ (IC50>2500 nM)	–	–	–	–	–	–
COc1cccc([C@H](C)Nc2nc(NCCCN)nc3c(C(C)C)cnn23)c1 [(VIII-t), (S)-N2-(3-aminopropyl)-8-isopropyl-N4-(1-(3-methoxyphenyl)ethyl)pyrazolo[1,5-a][1,3,5]triazine-2,4-diamine]	+++ (IC50>2500 nM)	30 to 100 nM	+++ (IC50>2500 nM)	–	–	–	–	–	–
COc1cccc([C@H](C)Nc2nc(NCCOCCN)nc3c(C(C)C)cnn23)c1 [(VIII-u), (S)-N2-(2-(2-aminoethoxy)ethyl)-8-isopropyl-N4-(1-(3-methoxyphenyl)ethyl)pyrazolo[1,5-a][1,3,5]triazine-2,4-diamine]	+++ (IC50>2500 nM)	30 to 100 nM	+++ (IC50>2500 nM)	–	–	–	–	–	–
COc1cccc([C@H](C)Nc2nc(NCC3CCNC3)nc3c(C(C)C)cnn23)c1 (stereo partly drawn) [(VIII-w), 8-isopropyl-N4-((S)-1-(3-methoxyphenyl)ethyl)-N2-(pyrrolidin-3-ylmethyl)pyrazolo[1,5-a][1,3,5]triazine-2,4-diamine]	+++ (IC50>2500 nM)	30 to 100 nM	+++ (IC50>2500 nM)	–	–	–	–	–	–
COC(=O)C(CN)Nc1nc(N[C@@H](C)c2cccc(OC)c2)n2ncc(C(C)C)c2n1 (stereo partly drawn) [(VIII-y), methyl 3-amino-2-((8-isopropyl-4-(((S)-1-(3-methoxyphenyl)ethyl)amino)pyrazolo[1,5-a][1,3,5]triazin-2-yl)amino)propanoate]	+++ (IC50>2500 nM)	> 100 nM	+++ (IC50>2500 nM)	–	–	–	–	–	–
COc1cccc([C@H](C)Nc2nc(NC(CN)c3ccccc3)nc3c(C(C)C)cnn23)c1 (stereo partly drawn) [(VIII-z), N2-(2-amino-1-phenylethyl)-8-isopropyl-N4-((S)-1-(3-methoxyphenyl)ethyl)pyrazolo[1,5-a][1,3,5]triazine-2,4-diamine]	+++ (IC50>2500 nM)	> 100 nM	+++ (IC50>2500 nM)	–	–	–	–	–	–
CC(C)c1cnn2c(N[C@@H](C)c3ccccc3)nc([S+]([O-])C3CCNCC3)nc12 (stereo partly drawn) [(X-a), 8-isopropyl-N-((S)-1-phenylethyl)-2-(piperidin-4-ylsulfinyl)pyrazolo[1,5-a][1,3,5]triazin-4-amine]	+++ (IC50>2500 nM)	< 10 nM	+++ (IC50>2500 nM)	–	–	–	–	–	–
COc1ccccc1[C@H](C)Nc1nc([S+]([O-])C2CCNCC2)nc2c(C(C)C)cnn12 (stereo partly drawn) [(X-c), 8-isopropyl-N-((S)-1-(2-methoxyphenyl)ethyl)-2-(piperidin-4-ylsulfinyl)pyrazolo[1,5-a][1,3,5]triazin-4-amine]	+++ (IC50>2500 nM)	< 10 nM	+++ (IC50>2500 nM)	1475 fold	> 2500 nM	< 10 nM	< 10 nM	1612 fold	> 2500 nM
